Source: patent publication US11752159B2, “Compositions and methods for suppressing or reducing systemic immune response in a subject” (THE TRUSTEES OF THE UNIVERSITY OF PENNSYLVANIA, priority 2015, dated 2023)

Legend:
TSLP = assay: Systemic TSLP induction by topical vitamin D3 analogs (ELISA); format: in vivo, mice; conditions: for serum TSLP levels: topical, ear skin bilaterally, 2 nmol/ear in ethanol, after 5 days of treatment
Tregs = assay: Treg % in blood and spleen after topical vitamin D3 analogs; format: in vivo, mice; conditions: topical 0.04 nmol/ear
Source text: FIGS. 10A-10B comprise bar graphs illustrating data derived from topically treating mice with EtOH or EB1089 (0.04 nmol/ear) for 5 days and bleeding them on Day 7. Treg % from (FIG. 10A) blood and (FIG. 10B) spleen are illustrated. N=3 mice/group. *p<0.01 by Student t-test.
(§1) VDR stimulation of keratinocytes led to TSLP production, which in certain embodiments caused increase in Treg numbers. The effects of two vitamin D3 analogs (22-Oxacalcitriol, also known as 22-OXA, and EB1089) on TSLP production and Treg numbers were evaluated. Similarly to MC903, 22-OXA and EB1089 were applied to the ear skin bilaterally at a dose of 2 nmol/ear dissolved in ethanol. After 5 days of treatment, the mice were bled and serum TSLP levels were measured. […] To avoid the toxic effect, the dose of 22-OXA and EB1089 was lowered to a point where morbidity and mortality of mice was not observed (0.4 nmol/ear for 22-OXA; 0.04 nmol/ear for EB1089). At this dose, no increase in TSLP level was detected in 22-OXA-treated mice (FIG. 9B).

[1] = Toxicity (morbidity and mortality) of topical vitamin D3 analogs in mice; format: in vivo; conditions: for dose at which morbidity and mortality of mice was not observed: topical; for toxicity at 2 nmol/ear: topical 2 nmol/ear
Protocol: as §1

Compound | TSLP level at 0.04 nmol/ear (TSLP; topical 0.04 nmol/ear) | serum TSLP levels (TSLP) | blood Tregs (Tregs) | splenic Treg numbers (Tregs) | dose at which morbidity and mortality of mice was not observed [1] | toxicity at 2 nmol/ear [1] | TSLP level at 0.4 nmol/ear (TSLP; topical 0.4 nmol/ear)
C=C1/C(=C\C=C2/CCC[C@]3(C)[C@@H]([C@H](C)/C=C/C=C/C(O)(CC)CC)CC[C@@H]23)C[C@@H](O)C[C@@H]1O [EB1089, 1(S),3(R)-dihydroxy-20(R)-(5′-ethyl-5′-hydroxy-hepta-1′(E),3′(E)-dien-1′-yl)-9,10-secopregna-5(Z),7(E),10(19)-triene] | some TSLP was detectable | induced detectable amounts of TSLP | only a subtle increase | did not have any effect | 0.04 nmol/ear | toxicity-related morbidity and mortality | 
C=C1/C(=C\C=C2/CCC[C@]3(C)[C@@H]([C@H](C)OCCC(C)(C)O)CC[C@@H]23)C[C@@H](O)C[C@@H]1O [22-OXA, 22-oxa-1α,25(OH)2D3] |  | induced detectable amounts of TSLP |  |  | 0.4 nmol/ear | toxicity-related morbidity and mortality | no increase
